Results as given in paper PMC6679423 (International Journal of Molecular Sciences, 2019).

Target: T1, human recombinant CYP1A1 (Homo sapiens, UniProt P04798)
T1 construct: purchased Gentest Corp; host or cells: insect cells (baculovirus)
T1 sequence (P04798 1-512): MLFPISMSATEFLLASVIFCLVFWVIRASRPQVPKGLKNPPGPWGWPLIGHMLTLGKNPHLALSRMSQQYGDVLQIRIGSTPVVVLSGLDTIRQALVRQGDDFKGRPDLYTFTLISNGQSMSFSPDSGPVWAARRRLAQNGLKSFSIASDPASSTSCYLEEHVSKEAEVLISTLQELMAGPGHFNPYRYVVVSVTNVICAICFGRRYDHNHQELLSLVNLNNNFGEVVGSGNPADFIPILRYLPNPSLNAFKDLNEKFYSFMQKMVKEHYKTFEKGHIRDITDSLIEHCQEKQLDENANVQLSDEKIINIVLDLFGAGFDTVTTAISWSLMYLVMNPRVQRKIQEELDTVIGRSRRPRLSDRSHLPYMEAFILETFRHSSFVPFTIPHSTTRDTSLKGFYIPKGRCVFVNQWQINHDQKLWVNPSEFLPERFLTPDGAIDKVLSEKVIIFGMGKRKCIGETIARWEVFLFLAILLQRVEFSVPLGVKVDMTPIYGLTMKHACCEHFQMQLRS
Experiment: Vandetanib oxidation by human recombinant CYP1A1 (Supersomes)
Assay type: in vitro ADME
Experimental: Vandetanib was from LC Laboratories (Woburn, MA, USA). Ketoconazole, NADPH, methimazol and other chemicals were all purchased from Sigma-Aldrich (St. Louis, MO, USA). The purity of all chemicals met the standards of American Chemical Society, unless noted otherwise. All animal experiments were conducted in accordance with the Regulations for the Care and Use of Laboratory Animals (311/1997, Ministry of Agriculture, Czech Republic), which follows the Declaration of Helsinki. Male Wistar rats (~125–150 g; AnLab, Czech Republic), male C57BL/6 mice ([…]; CXR Bioscience Ltd., Dundee, UK), and male New Zealand rabbits (2.5–3 kg; AnLab, Czech Republic) were employed as animal models. Animals were placed in cages in temperature- and humidity-controlled rooms, acclimatized for five days and maintained at 22 °C with a 12 h light/dark period. Standardized diet and water were provided ad libitum. Rats, mice and rabbits used to prepare microsomal fraction from untreated animals were sacrificed by cervical dislocation, livers snap-frozen in liquid nitrogen and stored at −80 °C until further processing (see below). For controls, livers of the animals were removed immediately after sacrifice, divided into small pieces (~1 g), snap-frozen in liquid nitrogen, and stored at −80 °C until isolation of microsomal fractions. Pooled microsomes were used for all in vitro experiments in the present study and prepared from 10 livers/group for all animal species following established protocols. Microsomal fractions were stored at −80 °C until analysis. Protein concentrations in the microsomal fractions were assessed using the bicinchoninic acid protein assay with bovine serum albumin as a standard. Male human hepatic microsomes (pooled sample) (sample LOT: 3043885) were from Gentest Corp. (Woburn, MA, USA). Microsomes from livers of twelve human donors were obtained from Gentest Corp. (Woburn, MA, USA) (cat. no. HG43–1, HG103, HG74, HG93, HG24, HG27, HG23, HG32, HK31, HK34, HG03, and HG42). Each human microsomal sample has been characterized for CYP, FMO and protein contents and specific CYP activities by Gentest Corp. We reanalyzed each microsomal preparation for specific CYP, NADPH:CYP reductase (POR) and FMO activities by assays described in the protocols of Gentest Corp. Our data were similar to those reported by Gentest Corp. in their specification sheets. […]

effect of cytochrome b5 on N-desmethylvandetanib formation (CYP1A1 with vs without cytochrome b5): essentially no such effect | contribution of CYP1A1 to N-desmethylvandetanib formation in human liver (without consideration of cytochrome b5): < 0.3%
SMILES: COc1cc2c(Nc3ccc(Br)cc3F)ncnc2cc1OCC1CCNCC1 [N-desmethylvandetanib]
